For data set [1] the following is noted: cited from earlier work.
Another data set has as its system Mycobacterium bovis BCG. Conditions: at least 0.25% by weight phthalaldehyde as sole active ingredient, 20° C.; cited from earlier work.
The conditions of data set [2]: pH range of 3 to 9; cited from earlier work.
For data set [3], the system named is Bacillus subtilis spores. As to conditions: cited from earlier work.
Data set [4] can be described thus: storage stability of phthalaldehyde solution (loss by Cannizzaro reaction). The data set is classed as physicochemical. As to conditions: about 11 weeks. The text has this: Overall, the Cannizzaro reaction generally leads to loss of phthalaldehyde and a decrease in the germicidal efficacy of the solution. While a pH of from 6 to 10, or 7.5 to 9 generally enhances the efficacy of the phthalaldehyde-carbonate solution, the higher or alkaline pH also generally promotes the Cannizzaro reaction. […] However, about 14% of the phthalaldehyde may be lost if the same solution is stored for about 11 weeks at a pH of 9, at room temperature. Even more of the phthalaldehyde may be converted if the storage period is longer, if the temperature is higher, or if the pH is higher than 9.

Data set [5] concerns Bacillus subtilis spores. Briefly: spore suspension test, killing of Bacillus subtilis spores. The data set is classed as cell-based. Conditions: for Log Reduction/mL, 8 hr: 8 hr exposure; for Log Reduction/mL (3 hr, 20° C., pH = 8): 3 hr exposure; for Log Reduction/mL, 24 hr: 24 hr exposure; for Log Reduction/mL, 4 hr: 4 hr exposure.
Data set [6] has as its system Clostridium sporogenes spores. As to conditions: cited from earlier work.
For data set [7], the system named is Bacillus subtilis spores. As to conditions: cited from earlier work. This is another data set of the same source.
The subject of the next data set is spores. As to conditions: 0.3% (w/v) NaHCO3 added; cited from earlier work.
Where [8] appears, read: 0.25% phthalaldehyde as sole active ingredient, 20° C.
The mark [9] stands for this setting: 20° C., composition and pH per label.

Several values for one entry are separate records, joined by “and”; a condition that tells them apart may be missing. Identical values can stand only once. Like-named read-outs stand apart in the source and are kept apart here.

The source of these data is patent publication US20050136118A1, “Distribution and preparation of germicidal compositions” (priority 2003, published 2005).

Turning to `O=Cc1ccccc1C=O` [0.3% OPA, phthalaldehyde], in data set [1], the solubility in water entry was “about 5 % by weight”. Besides, the “time to kill all Mycobacterium bovis BCG in contact (high-level disinfection)” value in the data set with Mycobacterium bovis BCG is ≤ 10 min. For the same compound, in [2], the “storage stability of single-component compositions” value was “excellent stability”. Further, the “time for sporicidal activity” value (in the data set with Bacillus subtilis spores [3] (setting [8]); in data set [6] (setting [8])) was 24 h in each case. Besides, the “time to achieve sterilization” value (in the data set with Bacillus subtilis spores [3] (1.0% phthalaldehyde); in [6] (1.0% phthalaldehyde)) was 10 h each time. Besides, in data set [4] (pH 7 or lower, room temperature to about 40° C.), the “loss of phthalaldehyde on storage” value was “without a noticeable loss”. Further, the “phthalaldehyde lost on storage” value in [4] (pH 9, room temperature) is “about 14%”. The “Log Reduction/mL, 2 hr” value in the data set with Bacillus subtilis spores [5] (20° C., 2 hr exposure, composition and pH per label) is 0.4 log/mL. Moreover, the “Log Reduction/mL, 6 hr” value with Bacillus subtilis spores [5] (20° C., 6 hr exposure) is given as 0.7 log/mL. Besides, the “Log Reduction/mL, 8 hr” value in the data set on Bacillus subtilis spores [5] (20° C.) was ~0.6 log/mL. Also, the “Log Reduction/mL (3 hr, 20° C., pH = 8)” value in the data set on Bacillus subtilis spores [5] amounted to 0.10 log/mL. Besides, in the data set on Bacillus subtilis spores [5] (4 hrs, labelled solution additionally contains 63 mM NaHCO3), the “Log Reduction/mL (20° C., 4 hrs), [NaHCO3], 63 mM” value was 1.5 log/mL and 1.4 log/mL. For the same compound, in the data set with Bacillus subtilis spores [5] (4 hrs, labelled solution additionally contains 63 mM phosphate), the “Log Reduction/mL (20° C., 4 hrs), [Phosphate], 63 mM” value is listed as 0.7 log/mL. Also, in the data set on Bacillus subtilis spores [5] (4 hrs, labelled solution additionally contains 400 mM NaF), the “Log Reduction/mL (20° C., 4 hrs), [NaF], 400 mM” value stood at 4.7 log/mL. The “Log Reduction/mL (20° C., 4 hrs), [NaF], 0 mM” value in the data set with Bacillus subtilis spores [5] (4 hrs, no NaF added to the labelled solution) came to 0.4 log/mL. For the same compound, the “Log Reduction/mL (20° C., 4 hrs), [NaHCO3], 0 mM” value in the data set with Bacillus subtilis spores [5] (4 hrs, no NaHCO3) worked out at 0.5 log/mL. In addition, in the data set with Bacillus subtilis spores [5] (4 hrs, no phosphate), the “Log Reduction/mL (20° C., 4 hrs), [Phosphate], 0 mM” value turned out to be 0.4 log/mL.
`O=CCCCC=O` [2.4% Glutaraldehyde, glutaraldehyde]: the “effect of salt concentration on sporicidal activity” value (from here on “effect of salt concentration”) with Bacillus subtilis spores [7] (salt ranging from 0 to 1M) is “increasing with an increase in concentration of sodium bicarbonate or sodium chloride”. For the same compound, the “Log Reduction/mL (3 hr, 20° C., pH = 8)” value with Bacillus subtilis spores [5] is listed as <1.1 log/mL.
With `[F-].[Li+]` [100 mM LiF, lithium fluoride], the “Log Reduction/mL, 24 hr” value in the data set on Bacillus subtilis spores [5] (20° C.) is 0.0 log/mL.
`[F-].[K+]` [1000 mM KF, potassium fluoride]: in the data set on Bacillus subtilis spores [5] (20° C.), the “Log Reduction/mL, 8 hr” value is given as 0.0 log/mL and the “Log Reduction/mL, 24 hr” value stood at 0.1 log/mL. Also, in the data set on Bacillus subtilis spores [5], the “Log Reduction/mL (3 hr, 20° C., pH = 8)” value came out at 0.0 log/mL.
On to `[I-].[K+]` [1000 mM KI, potassium iodide], for which the “Log Reduction/mL (3 hr, 20° C., pH = 8)” value in the data set on Bacillus subtilis spores [5] stood at 0.0 log/mL.
Regarding `[Br-].[Na+]` [1000 mM NaBr, sodium bromide], in the data set on Bacillus subtilis spores [5] (setting [9]), the “Log Reduction/mL, 4 hr” value came to 0.0 log/mL. Further, in the data set with Bacillus subtilis spores [5] (20° C.), the “Log Reduction/mL, 24 hr” value was determined as 0.1 log/mL.
For `[Cl-].[Na+]` [1000 mM NaCl, sodium chloride], the “Log Reduction/mL, 24 hr” value with Bacillus subtilis spores [5] (20° C.) worked out at 0.2 log/mL.
For the compound `[F-].[Na+]` [1000 mM NaF, sodium fluoride], the “Log Reduction/mL, 8 hr” value with Bacillus subtilis spores [5] (20° C.) was 0.0 log/mL.
`[I-].[Na+]` [1000 mM NaI, sodium iodide]: in the data set on Bacillus subtilis spores [5] (setting [9]), the “Log Reduction/mL, 4 hr” value was found to be 0.0 log/mL. In the data set on Bacillus subtilis spores [5] (20° C.), the “Log Reduction/mL, 8 hr” value was determined as 0.0 log/mL and the “Log Reduction/mL, 24 hr” value came out at 0.1 log/mL.
As for `CCCC=O` [butyraldehyde], in the data set on spores, the “effect of addition of NaHCO3 on sporicidal action” value is on record as “did not affect”.
`O=CC=O` [glyoxal]: in the data set on spores, the “effect of addition of NaHCO3 on sporicidal action” value is “did not affect”.
On to `OO` [hydrogen peroxide], for which, in the data set with Bacillus subtilis spores [7] (salt ranging from 0 to 1M), the “effect of salt concentration” value is given as “not affected”.
For `CC(=O)OO` [peracetic acid], in the data set with Bacillus subtilis spores [7] (salt ranging from 0 to 1M), the “effect of salt concentration” value is “not affected”.
For `Oc1ccccc1` [phenol], the “effect of salt concentration” value in the data set on Bacillus subtilis spores [7] is recorded as “not affected”.
Take `OCl` [sodium hypochlorite]: the “effect of salt concentration” value in the data set with Bacillus subtilis spores [7] (salt ranging from 0 to 1M) is reported as “not affected”.
Turning to cupric ascorbate, the “effect of salt concentration” value in the data set with Bacillus subtilis spores [7] (salt ranging from 0 to 1M) is “not affected”.
